Holding throughout (format): biochemical
For assay [1], the target named is T1, MMP-1 (Homo sapiens, UniProt P03956).
T1 sequence (P03956 100-469): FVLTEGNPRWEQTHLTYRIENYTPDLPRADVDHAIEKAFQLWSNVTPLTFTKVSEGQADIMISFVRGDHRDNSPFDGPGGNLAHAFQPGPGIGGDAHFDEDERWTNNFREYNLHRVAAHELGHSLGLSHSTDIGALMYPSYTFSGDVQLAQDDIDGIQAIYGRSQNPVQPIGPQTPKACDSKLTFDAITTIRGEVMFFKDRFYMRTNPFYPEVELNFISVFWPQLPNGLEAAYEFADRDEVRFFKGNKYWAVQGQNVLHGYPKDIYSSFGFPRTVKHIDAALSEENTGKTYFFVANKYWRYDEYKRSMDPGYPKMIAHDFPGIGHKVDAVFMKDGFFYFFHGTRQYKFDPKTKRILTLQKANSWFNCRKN
Briefly: MMP-1 inhibition (thiopeptide or fluorescent peptide substrate assay). The conditions noted are these: for inhibition at 1 µM: read-out: MMP-1 % inhibition, concentration 1 µM. The procedure: (§1) These assays are based on the cleavage of a thiopeptide substrates such as Ac-Pro-Leu-Gly(2mercapto-4 methyl-pentanoyl)-Leu-Gly-OEt by the matrix metalloproteinases MMP-1, MMP-13 (collagenases) or MMP-9 (gelatinase), which results in the release of a substrate product that reacts colorimetrically with DTNB (5,5'-dithiobis(2-nitro-benzoic acid)). The enzyme activity is measured by the rate of the color increase. The thiopeptide substrate is made up fresh as a 20 mM stock in 100% DMSO and the DTNB is dissolved in 100% DMSO as a 100 mM stock and stored in the dark at room temperature. Both the substrate and DTNB are diluted together to 1 mM with substrate buffer (50 mM HEPES pH 7.5, 5 mM CaCl2) before use. The stock of enzyme is diluted with assay buffer (50 mM HEPES, pH 7.5, 5 mM CaCl2, 0.02% Brij) to the desired final concentration.
(§2) Alternatively, a fluorescent peptide substrate is used. In this assay, the peptide substrate contains a fluorescent group and a quenching group. Upon cleavage of the substrate by an MMP, the fluorescence that is generated is quantitated on the fluorescence plate reader. The assay is run in HCBC assay buffer (50mM HEPES, pH 7.0, 5 mM Ca^+2, 0.02% Brij, 0.5% Cysteine), with human recombinant MMP-1, MMP-9, or MMP-13. The substrate is dissolved in methanol and stored frozen in 1 mM aliquots. For the assay, substrate and enzymes are diluted in HCBC buffer to the desired concentrations. Compounds are added to the 96 well plate containing enzyme and the reaction is started by the addition of substrate. The reaction is read (excitation 340 nm, emission 444 nm) for 10 min. and the increase in fluorescence over time is plotted as a linear line.
(§3) For either the thiopeptide or fluorescent peptide assays, the slope of the line is calculated and represents the reaction rate. The linearity of the reaction rate is confirmed (r^2 >0.85). The mean (x±sem) of the control rate is calculated and compared for statistical significance (p<0.05) with drug-treated rates using Dunnett's multiple comparison test.

Assay [2] deals with MMP-9 (Homo sapiens, UniProt P14780). Description: MMP-9 inhibition (thiopeptide or fluorescent peptide substrate assay). The conditions noted are these: for inhibition at 10 µM: concentration 10 µM. The protocol:
as §1, §2, §3

Assay [3] concerns the target MMP-13 (Homo sapiens, UniProt P45452). Briefly: MMP-13 inhibition (thiopeptide or fluorescent peptide substrate assay).
Description: Alternatively, a fluorescent peptide substrate is used. In this assay, the peptide substrate contains a fluorescent group and a quenching group. Upon cleavage of the substrate by an MMP, the fluorescence that is generated is quantitated on the fluorescence plate reader. […] The substrate is dissolved in methanol and stored frozen in 1 mM aliquots. For the assay, substrate and enzymes are diluted in HCBC buffer to the desired concentrations. Compounds are added to the 96 well plate containing enzyme and the reaction is started by the addition of substrate.
For assay [4], the target named is T2, TACE (Homo sapiens, UniProt P78536).
T2 construct: purchased Immunex
T2 sequence (P78536 215-824): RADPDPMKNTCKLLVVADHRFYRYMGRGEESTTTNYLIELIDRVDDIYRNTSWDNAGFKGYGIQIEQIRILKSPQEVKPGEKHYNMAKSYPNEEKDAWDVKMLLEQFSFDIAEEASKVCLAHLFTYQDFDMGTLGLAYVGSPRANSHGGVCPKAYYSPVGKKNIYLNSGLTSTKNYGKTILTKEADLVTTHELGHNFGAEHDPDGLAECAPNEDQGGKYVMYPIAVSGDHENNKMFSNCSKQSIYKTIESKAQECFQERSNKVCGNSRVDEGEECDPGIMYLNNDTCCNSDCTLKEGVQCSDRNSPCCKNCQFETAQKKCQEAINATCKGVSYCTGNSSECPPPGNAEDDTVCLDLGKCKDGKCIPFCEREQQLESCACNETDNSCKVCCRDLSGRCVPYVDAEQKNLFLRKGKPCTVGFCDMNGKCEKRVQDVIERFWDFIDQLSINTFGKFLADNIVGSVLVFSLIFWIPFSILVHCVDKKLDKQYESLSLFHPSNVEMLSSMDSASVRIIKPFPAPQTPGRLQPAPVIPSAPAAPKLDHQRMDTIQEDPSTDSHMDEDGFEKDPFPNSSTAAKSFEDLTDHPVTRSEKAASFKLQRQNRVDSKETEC
Description: TACE inhibition (fluorescent peptidyl substrate assay).
Description: Using 96-well black microtiter plates, each well receives a solution composed of 10 µL TACE (Immunex, final concentration 1µg/mL), 70µL Tris buffer, pH 7.4 containing 10% glycerol (final concentration 10 mM), and 10 µL of test compound solution in DMSO (final concentration 1µM, DMSO concentration <1%) and incubated for 10 minutes at room temperature.
The reaction is read (excitation 340 nm, emission 420 nm) for 10 min. and the increase in fluorescence over time is plotted as a linear line. The slope of the line is calculated and represents the reaction rate.

Sequence of MMP-9 (P14780 94-707): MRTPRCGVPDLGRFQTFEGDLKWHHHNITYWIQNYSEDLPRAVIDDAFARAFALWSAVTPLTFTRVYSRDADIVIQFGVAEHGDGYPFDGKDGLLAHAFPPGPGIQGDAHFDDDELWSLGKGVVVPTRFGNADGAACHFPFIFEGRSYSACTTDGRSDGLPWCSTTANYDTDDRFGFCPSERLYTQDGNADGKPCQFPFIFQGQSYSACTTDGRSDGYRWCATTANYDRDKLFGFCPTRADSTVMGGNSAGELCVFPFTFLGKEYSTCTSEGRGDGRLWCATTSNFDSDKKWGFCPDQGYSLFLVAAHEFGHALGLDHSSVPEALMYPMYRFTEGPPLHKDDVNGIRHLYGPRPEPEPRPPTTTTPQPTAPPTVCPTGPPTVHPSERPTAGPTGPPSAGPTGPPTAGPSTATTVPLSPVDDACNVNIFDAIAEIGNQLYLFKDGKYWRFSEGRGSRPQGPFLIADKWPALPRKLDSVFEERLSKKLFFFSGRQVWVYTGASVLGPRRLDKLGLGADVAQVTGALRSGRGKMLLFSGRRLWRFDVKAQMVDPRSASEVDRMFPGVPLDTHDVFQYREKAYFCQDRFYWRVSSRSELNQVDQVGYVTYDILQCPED

`C#Cc1scc(C(=O)NO)c1N(Cc1ccccc1)S(=O)(=O)c1ccc(OC)cc1` [Example 23, 4-[Benzyl-(4-methoxy-benzenesulfonyl)-amino]-5-ethynyl-thiophene-3-carboxylic acid hydroxyamide]: the inhibition (usually the percentage by which the read-out fell short of the control) at 1 µM in assay [1] turned out to be 48.9%. Also, the inhibition at 300 µM in assay [2] (read-out: MMP-9 % inhibition, concentration 300 µM) was 38.4%; in assay [3] (read-out: MMP-13 % inhibition), 35%.

As to `COc1ccc(S(=O)(=O)N(Cc2ccccc2)c2c(C)csc2C(=O)NO)cc1` [Example 16, 3-[Benzyl-(4-methoxy-benzenesulfonyl)-amino]-4-methyl-thiophene-2-carboxylic acid hydroxyamide], the midpoint of inhibition in assay [2], the IC50, lay at 104 nM.

`COc1ccc(S(=O)(=O)N(Cc2ccccc2)c2c(C(=O)NO)cc(OC)nc2OC)cc1` [Example 33, 3-[Benzyl-(4-methoxy-benzenesulfonyl)-amino]-N-hydroxy-2,6-dimethoxyisonicotinamide]: the half-inhibitory concentration (IC50) – broadly, the concentration that inhibits the measured activity by half – stood at 15 nM in assay [2], 47 nM in assay [3] and 294 nM in assay [4].

Regarding `COc1ccc(S(=O)(=O)N(Cc2ccccc2)c2cscc2C(=O)NO)cc1` [Example 14, 4-[Benzyl-(4-methoxy-benzenesulfonyl)-amino]-thiophene-3-carboxylic acid hydroxyamide], the inhibition at 1 µM in assay [1] came out at 40%. For the same molecule, the inhibition at 10 µM in assay [2] (read-out: MMP-9 % inhibition) amounted to 66.8%.

For the molecule `COc1ccc(S(=O)(=O)N(Cc2cccnc2)c2c(C(=O)NO)csc2Br)cc1` [Example 26, 5-Bromo-4-[(4-methoxy-benzenesulfonyl)-pyridin-3-ylmethyl-amino]-thiophene-3-carboxylic acid hydroxyamide], the figures for the IC50 in assay [1] and in assay [2] were 1000 nM and 70 nM, respectively. The same molecule had an inhibition at 1 µM in assay [4] (concentration 1 µM) of 42%.

Take `COc1ccc(S(=O)(=O)N(Cc2ccccc2)c2ccsc2C(=O)NO)cc1` [Example 13, 3-[Benzyl-(4-methoxy-benzenesulfonyl)-amino]-thiophene-2-carboxylic acid hydroxyamide]: the inhibition at 1 µM in assay [1] is 19.3%. Also, the inhibition at 10 µM in assay [2] (read-out: MMP-9 % inhibition) amounted to 57.3%.

Take `COc1ccc(S(=O)(=O)N(Cc2ccccc2)c2c(C(=O)NO)csc2Br)cc1` [Example 20, 4-[Benzyl-(4-methoxy-benzenesulfonyl)-amino]-5-bromo-thiophene-3-carboxylic acid hydroxyamide]: the IC50 is 638 nM in assay [1], 236 nM in assay [2] and 472 nM in assay [3].

Consider `COc1ccc(S(=O)(=O)N(Cc2ccccc2)c2c(C(=O)NO)cnn2C)cc1` [Example 15, 5-[Benzyl-(4-methoxy-benzenesulfonyl)-amino]-1-methyl-1H-pyrazole-4-carboxylic acid hydroxyamide], for which the inhibition at 1 µM in assay [1] was 22.1%. In addition, half-maximal inhibition in assay [2] (IC50) was put at 930 nM.

The values above are taken from patent EP0934300B1, “THE PREPARATION AND USE OF ORTHO-S[…] AS MATRIX METALLOPROTEINASE AND TACE INHIBITORS” (American Cyanamid Company, priority 1996, dated 1998).
